{
  "source": "patent US6433012B1",
  "about": "“Method for inhibiting inflammatory disease” (Large Scale Biology Corp., priority 1998, dated 2002)",
  "key": {"[1]": {"assay": "Oral (gavage) toxicity in nude mice", "type": "in vivo", "conditions": "doses as high as 1,000 mg/kg-day for 60 to 180 days"}, "[2]": {"assay": "Bone marrow toxicity, histological examination", "type": "in vivo", "conditions": "500 mg/kg-day by gavage for 4 weeks", "description": "Swiss Webster mice were exposed to the drug at 500 mg/kg-day by gavage for a period of 4 weeks, and bone marrow was examined histologically."}, "[3]": {"test_system": "MDA MB-231 human breast carcinoma xenografts", "assay": "Tumor growth delay, MDA MB-231 xenografts", "type": "in vivo, Swiss NCr nude (nu/nu) female mice", "conditions": "oral treatment, 6 weeks of therapy", "description": "(§1) Intraperitoneally administered cyclophosphamide (CTX; Cytoxan; 150 mg/kg), which is used in some regimens for adjuvant breast cancer therapy was used as a positive control."}, "[4]": {"test_system": "OVCAR-3 human ovarian carcinoma xenografts", "assay": "Tumor growth delay, OVCAR-3 xenografts", "type": "in vivo, nude mice", "conditions": "oral treatment, at 5 weeks", "description": "as §1"}, "MDA MB-231 cell cultures": {"test_system": "MDA MB-231 cell cultures", "assay": "Cytotoxicity in vitro (reduction of cell number)", "type": "cell-based", "conditions": "Homo sapiens, treated for 48 h, read-out: IC50 (50% reduction of cell number relative to vehicle-treated control)"}, "MCF-7 cell cultures": {"test_system": "MCF-7 cell cultures", "assay": "Cytotoxicity in vitro (reduction of cell number)", "type": "cell-based", "conditions": "Homo sapiens, MCF7; treated for 48 h; read-out: IC50 (50% reduction of cell number relative to vehicle-treated control)"}, "MCF-7 cells": {"test_system": "MCF-7 cells", "assay": "Trypan blue exclusion assay (loss of membrane integrity)", "type": "cell-based", "conditions": "1 μM, 48 h of exposure"}, "[5]": {"test_system": "corneal neovascularization induced by bFGF", "assay": "Rat corneal neovascularization assay", "type": "in vivo, Fischer 344 rats", "design": "total vascular area: unit not given here", "conditions": "oral gavage 500 mg/kg twice a day for 6 days", "description": "Hydron polymer (Interferon Sciences, New Brunswick, N.J.) was dissolved in ethanol to a concentration of 12% (W/V). A 1:1 mixture of 12% Hydron and bFGF/Sucralfate/PBS suspension was made as a casting solution and 3 μl of this solution was pipetted onto a sterile Teflon sheet and allowed to dry overnight at 4° C. Each dried pellet contained 50 ng of bFGF and 20 μg of Sucralfate. Female Fischer 344 rats (16 animals, 8-10 weeks old at an approximate weight of 150 g; Charles River, Raleigh, N.C.) were used for this study. Animals were kept in temperature-controlled rooms (24° C.) on a 12-h light-dark cycle with access to rat chow and tap water ad libitum. Following anesthesia with sodium pentobarbital given i.p. at 50 mg/kg body weight, a rat was placed under a dissecting microscope and a drop of Ophthaine was applied on the cornea of one eye. The eye was proptosed by stretching sutures on the upper and lower eyelids. A small superficial incision was made through the cornea center and a micropocket was created by separating the lamella of the stroma toward the limbus with a modified iris spatula. The distance between the bottom of the micropocket and the limbus was about 1 mm. A prepared sterile Hydron pellet was rehydrated with a drop of sterile saline and placed into the corneal micropocket. The cornea was covered with gentamycin ophthalmic ointment (Alleran, Inc., Irvine, Calif.) after surgery. Rats were randomly divided into treated and control groups. […] The drug was administrated by oral gavage at a dose of 500 mg/kg body weight, twice a day for 6 days beginning from the first postoperative day. The controls received vehicle only, and body weights of all animals were monitored and recorded daily. On the seventh postoperative day, animals were anesthetized with nembutal (50 mg/kg) and the thoracic aorta was rapidly cannulated in a retrograde fashion with PE 100 tubing. An incision was made in the right auricle for drainage of blood and saline during flushing and 40-60 mL of saline was injected via the tubing to wash out the blood from the vessels in the upper part of the body until the eyes, ears and nose became pale. Then 10 mL of Higgins waterproof Indian ink (Sanford, Bellwood, Ill.) was injected via the tubing to visualize corneal vessels. The eyes were enucleated, fixed in 10% neutralized formaldehyde buffer, and the corneas were dissected and mounted on slides. Slide-mounted corneal images were taken by using a Carl Zeiss MPS intravital microscope (Carl Zeiss, Hanover, Md.) with a camera connected to a PC equipped with Scion Image software and a frame grabber (Scion Corporation, Frederick, Md.).\nFor the quantitative analysis of corneal neovascularization, various parameters of the corneal images were measured by an investigator who was unaware of the treatment protocol. The shortest distance between the implanted pellet and the limbus was marked as the midline and was measured. The arc along the limbus for the entire vascularized area was drawn and the length of the arc was measured. The circumference of this area was calculated by using the following equation: Circumference (in clock hours)=Arc length×360/πD/30, where D is the corneal diameter. The marked arc was evenly divided into six sections, distances between vessel tips and the limbus at the five intersection points of the arc were measured, and the average vessel length was calculated. The perpendicular distance between the tip of the longest vessel and the limbus (longest vessel length) was also measured. To measure the percent vascular volume (i.e., the vascular volume density), three circles with a diameter of 100 pixels were located between the pellet and the limbus on the midline in the second and the fifth sections, respectively. The total area of each circle (Area-T) and the area for vessels in each circle (total black pixels) were measured (Area-V). […]"}},
  "data": [
    {"smiles": "COC(=O)c1cc(I)c(Oc2ccc(OC)cc2)c(I)c1", "note": "[BTO-956, methyl-3,5-diiodo-4-(4′-methoxyphenoxy)benzoate]", "values": [
      {"measurement": "gross pathology", "setting": "[1]", "value": "No other gross pathology"},
      {"measurement": "liver and kidney weights", "setting": "[1]", "value": "only slight and transient increases"},
      {"measurement": "bone marrow profiles", "setting": "[2]", "value": "did not differ from those of control animals"},
      {"measurement": "hematopoietic abnormalities", "setting": "[2]", "value": "no hematopoietic abnormalities"},
      {"measurement": "growth of tumors (relative mean tumor volume)", "setting": "[3]", "value": "suppressed"},
      {"measurement": "relative mean tumor volume, fold less than vehicle-treated controls", "setting": "[4]", "value": "approximately 5 fold"},
      {"measurement": "IC50", "setting": "MDA MB-231 cell cultures", "value": 300, "unit": "nM"},
      {"measurement": "IC50", "setting": "MCF-7 cell cultures", "value": 600, "unit": "nM"},
      {"measurement": "cytotoxicity by loss of membrane integrity (trypan blue exclusion)", "setting": "MCF-7 cells", "value": "substantial cytotoxicity"},
      {"measurement": "body weight loss or behavioral changes", "setting": "[5]", "value": "No significant body weight loss or behavioral changes"},
      {"measurement": "average vessel length", "setting": "[5]; mean ± SEM", "value": "0.42±0.07", "unit": "mm"},
      {"measurement": "circumference of corneal neovascularization", "setting": "[5]; mean ± SEM", "value": "1.74±0.11", "unit": "clock hours"},
      {"measurement": "maximum vessel length", "setting": "[5]; mean ± SEM", "value": "0.76±0.09", "unit": "mm"},
      {"measurement": "total vascular area", "setting": "[5]; mean ± SEM", "value": "1.52±0.27"},
      {"measurement": "vascular volume density", "setting": "[5]; mean ± SEM", "value": "0.037±0.01"},
      {"measurement": "reduction of average vessel length relative to controls", "setting": "[5]; p<0.001", "value": 50, "unit": "%"},
      {"measurement": "decrease of total vascular area compared with controls", "setting": "[5]; p<0.01", "value": 65, "unit": "%"},
      {"measurement": "decrease of vascular volume density compared with controls", "setting": "[5]; p<0.01", "value": 84.5, "unit": "%"},
      {"measurement": "reduction of circumference of neovascularization compared with controls", "setting": "[5]; p<0.01", "value": 45, "unit": "%"},
      {"measurement": "reduction of maximum vessel length relative to controls", "setting": "[5]; p<0.01", "value": 38, "unit": "%"}
    ]}
  ]
}
